Results as given in ChEMBL document CHEMBL1149996, “Combined glycomimetic and multivalent strategies for the design of potent selectin antagonists” (Bioorg Med Chem Lett, 1996).

Target: T1, E-selectin (Homo sapiens, UniProt P16581)
T1 sequence (P16581 whole entry): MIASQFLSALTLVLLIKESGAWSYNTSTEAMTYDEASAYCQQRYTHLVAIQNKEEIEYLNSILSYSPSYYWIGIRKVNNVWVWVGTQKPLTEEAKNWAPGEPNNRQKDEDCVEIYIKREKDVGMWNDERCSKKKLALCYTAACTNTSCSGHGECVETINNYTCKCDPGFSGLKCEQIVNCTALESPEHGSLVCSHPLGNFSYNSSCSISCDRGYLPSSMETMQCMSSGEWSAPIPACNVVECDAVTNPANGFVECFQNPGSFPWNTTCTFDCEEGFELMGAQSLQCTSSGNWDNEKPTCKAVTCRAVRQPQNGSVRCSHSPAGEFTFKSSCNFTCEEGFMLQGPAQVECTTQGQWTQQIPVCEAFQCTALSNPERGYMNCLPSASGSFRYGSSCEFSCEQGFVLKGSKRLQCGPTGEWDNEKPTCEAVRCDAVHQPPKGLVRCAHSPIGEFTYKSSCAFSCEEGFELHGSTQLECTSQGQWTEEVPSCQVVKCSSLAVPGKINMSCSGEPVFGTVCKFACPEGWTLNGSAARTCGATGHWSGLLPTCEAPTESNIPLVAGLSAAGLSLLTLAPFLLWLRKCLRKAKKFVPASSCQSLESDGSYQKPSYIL
Experiment: Inhibitory activity against Selectin E

- IC50: < 1000 µM
SMILES: CC(=O)N[C@H]1[C@H]([C@H](O)[C@H](O)CO)O[C@@](O[C@H]2[C@@H](O)[C@@H](CO)O[C@@H](O[C@@H]([C@H](O[C@@H]3O[C@@H](C)[C@@H](O)[C@@H](O)[C@@H]3O)[C@H](C=O)NC(C)=O)[C@H](O)CO)[C@@H]2O)(C(=O)O)C[C@@H]1O [SIALYL LEWIS X]
